Laboratory results as given in patent US10874670B2, “Substituted fused heteroaromatic compounds as kinase inhibitors and the use thereof” (IMPACT THERAPEUTICS, INC., priority 2017, dated 2020).

Experiments:
[1] = tested on: human breast cancer cell MDA-MB-468; test: MTT assay, growth of MDA-MB-468 cells; type: cell-based; details: Homo sapiens, MDA-MB-468, 168 h; 7 days, MTT
Method in brief: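 MDA-MB-468 cells in RPMI 1640 with 10% FBS were exposed to 8-point compound dilutions (final DMSO 1%) for 7 days at 37 °C, with drug-containing medium renewed on day 4. Viability was read by MTT (0.5 mg/mL, 4 h) absorbance at 552/630/690 nm. IC50 came from a sigmoidal dose-response fit.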

ATM enzyme (human) = ATM enzyme (human) (Homo sapiens, UniProt Q13315); test: ATM kinase assay (HTRF, GST-cMyc-p53 substrate); type: biochemical; details: 0.5 h, read-out: Inh (%) of ATM kinase; for inhibition at 1 µM: C 1 μm (final concentration of compound); for inhibition at 0.01 µM: C 0.01 μm (final concentration of compound); for inhibition at 0.1 µM: C 0.1 μm (final concentration of compound)
ATM enzyme (human), sequence (Q13315 whole entry): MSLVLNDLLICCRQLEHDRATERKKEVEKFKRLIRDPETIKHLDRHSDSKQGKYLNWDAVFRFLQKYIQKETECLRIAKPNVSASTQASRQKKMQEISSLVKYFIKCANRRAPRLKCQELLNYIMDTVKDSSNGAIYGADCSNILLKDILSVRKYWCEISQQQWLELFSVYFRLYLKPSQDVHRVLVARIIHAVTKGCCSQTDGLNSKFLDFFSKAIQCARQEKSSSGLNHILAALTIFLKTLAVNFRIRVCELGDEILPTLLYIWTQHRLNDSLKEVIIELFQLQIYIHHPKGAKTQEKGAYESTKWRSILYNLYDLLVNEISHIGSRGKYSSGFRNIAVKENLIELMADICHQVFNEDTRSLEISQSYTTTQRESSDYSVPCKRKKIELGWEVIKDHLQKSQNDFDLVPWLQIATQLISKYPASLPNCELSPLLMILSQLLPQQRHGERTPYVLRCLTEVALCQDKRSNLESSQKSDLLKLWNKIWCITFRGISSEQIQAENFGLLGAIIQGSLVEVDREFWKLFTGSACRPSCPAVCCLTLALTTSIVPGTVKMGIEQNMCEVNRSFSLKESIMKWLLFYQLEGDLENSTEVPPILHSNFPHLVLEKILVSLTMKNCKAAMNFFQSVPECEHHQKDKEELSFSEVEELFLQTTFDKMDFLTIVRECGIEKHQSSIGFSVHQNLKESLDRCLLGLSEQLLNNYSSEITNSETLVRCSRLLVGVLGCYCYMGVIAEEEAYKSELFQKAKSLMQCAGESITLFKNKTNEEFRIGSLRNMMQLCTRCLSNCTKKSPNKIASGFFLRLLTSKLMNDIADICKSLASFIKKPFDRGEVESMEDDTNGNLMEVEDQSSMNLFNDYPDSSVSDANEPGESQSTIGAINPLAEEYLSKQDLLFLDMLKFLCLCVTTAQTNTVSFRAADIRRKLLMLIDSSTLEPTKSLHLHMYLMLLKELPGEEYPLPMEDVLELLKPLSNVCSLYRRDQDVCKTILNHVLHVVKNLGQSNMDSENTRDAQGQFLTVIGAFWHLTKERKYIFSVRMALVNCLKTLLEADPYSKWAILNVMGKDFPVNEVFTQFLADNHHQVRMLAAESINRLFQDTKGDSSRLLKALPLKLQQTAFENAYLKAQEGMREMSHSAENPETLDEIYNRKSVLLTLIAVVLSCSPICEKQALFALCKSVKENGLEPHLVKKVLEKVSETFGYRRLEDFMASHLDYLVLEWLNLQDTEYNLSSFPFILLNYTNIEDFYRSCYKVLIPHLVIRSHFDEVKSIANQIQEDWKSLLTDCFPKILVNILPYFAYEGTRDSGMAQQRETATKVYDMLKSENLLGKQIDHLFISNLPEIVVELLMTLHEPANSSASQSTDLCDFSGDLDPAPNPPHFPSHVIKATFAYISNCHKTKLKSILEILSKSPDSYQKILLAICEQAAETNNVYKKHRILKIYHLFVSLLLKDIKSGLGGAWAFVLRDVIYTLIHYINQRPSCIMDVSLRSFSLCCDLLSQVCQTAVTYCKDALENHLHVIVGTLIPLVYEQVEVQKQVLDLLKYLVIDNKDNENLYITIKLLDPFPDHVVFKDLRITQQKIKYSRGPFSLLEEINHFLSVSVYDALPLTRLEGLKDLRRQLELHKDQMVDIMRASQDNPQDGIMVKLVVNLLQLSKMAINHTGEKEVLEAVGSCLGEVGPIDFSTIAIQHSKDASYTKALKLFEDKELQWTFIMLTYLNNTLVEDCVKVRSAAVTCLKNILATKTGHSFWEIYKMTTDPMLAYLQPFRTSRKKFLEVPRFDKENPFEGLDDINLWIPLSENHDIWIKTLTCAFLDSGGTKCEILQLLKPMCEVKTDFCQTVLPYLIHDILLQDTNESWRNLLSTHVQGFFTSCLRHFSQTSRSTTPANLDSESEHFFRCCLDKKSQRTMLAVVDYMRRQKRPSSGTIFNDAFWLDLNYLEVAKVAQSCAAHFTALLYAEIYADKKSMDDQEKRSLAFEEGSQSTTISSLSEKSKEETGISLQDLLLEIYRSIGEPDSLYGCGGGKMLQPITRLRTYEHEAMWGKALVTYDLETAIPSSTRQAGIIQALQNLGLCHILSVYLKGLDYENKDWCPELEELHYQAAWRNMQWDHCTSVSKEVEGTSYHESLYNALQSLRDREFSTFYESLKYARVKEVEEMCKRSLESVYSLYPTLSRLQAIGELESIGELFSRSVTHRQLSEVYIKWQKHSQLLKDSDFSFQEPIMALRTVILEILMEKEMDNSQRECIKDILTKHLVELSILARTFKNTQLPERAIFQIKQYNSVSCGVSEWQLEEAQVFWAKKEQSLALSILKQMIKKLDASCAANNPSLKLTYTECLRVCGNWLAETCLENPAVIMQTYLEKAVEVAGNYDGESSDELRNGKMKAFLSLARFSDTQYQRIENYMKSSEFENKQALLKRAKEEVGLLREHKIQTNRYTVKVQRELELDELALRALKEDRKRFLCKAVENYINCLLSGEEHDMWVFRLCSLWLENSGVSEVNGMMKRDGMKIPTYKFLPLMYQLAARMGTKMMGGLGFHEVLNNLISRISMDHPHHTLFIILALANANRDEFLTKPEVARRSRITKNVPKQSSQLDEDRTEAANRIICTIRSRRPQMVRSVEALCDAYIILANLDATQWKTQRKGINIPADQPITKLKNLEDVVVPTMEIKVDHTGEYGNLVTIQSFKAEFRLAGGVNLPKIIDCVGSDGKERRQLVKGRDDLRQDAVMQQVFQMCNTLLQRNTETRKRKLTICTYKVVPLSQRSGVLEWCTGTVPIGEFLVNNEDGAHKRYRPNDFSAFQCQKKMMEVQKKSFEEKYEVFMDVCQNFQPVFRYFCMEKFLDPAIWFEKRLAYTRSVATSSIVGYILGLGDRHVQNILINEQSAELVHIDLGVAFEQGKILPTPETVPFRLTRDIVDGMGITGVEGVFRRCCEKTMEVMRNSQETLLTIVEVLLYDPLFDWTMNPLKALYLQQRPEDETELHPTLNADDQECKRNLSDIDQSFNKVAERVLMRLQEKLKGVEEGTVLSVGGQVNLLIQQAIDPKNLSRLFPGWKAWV
Method in brief: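 Reaction with GST-cMyc-p53 substrate started with Mg/ATP, run 30 minutes at room temperature, then stopped with EDTA. Phospho-p53 (Ser15) detected by HTRF with Eu-labelled anti-phospho antibody and d2 anti-GST, signal as 10000×(Em665/Em620). Duplicates; IC50 from a curve fit with slope factor.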

[2] = tested on: human colon cancer cell SW620; test: MTT assay, growth of SW620 cells, compounds combined with CPT-11; type: cell-based; details: Homo sapiens, SW-620, 120 h; combined with CPT-11 (205 nM medium), 5 days, MTT
Method in brief: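 SW620 cells in RPMI 1640/10% FBS were exposed to 8-point compound dilutions (top 10 or 1 μM, 1% DMSO final) plus CPT-11 (205 nM in added medium) for 5 days at 37 °C. Viability by MTT (0.5 mg/mL, 4 h) absorbance; IC50 from sigmoidal fit.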

SMILES	IC50 [1]	inhibition at 1 µM (ATM enzyme (human))	IC50 [2]	inhibition at 0.001 µM (ATM enzyme (human); C 0.001 μm (final concentration of compound))	inhibition at 0.01 µM (ATM enzyme (human))	inhibition at 0.1 µM (ATM enzyme (human))
CN(C)C1CCN(c2ccc(-c3cc4c(cn3)ncc3nnc(C5CCOCC5)n34)cc2)CC1 [Example 71, N,N-dimethyl-1-(4-(1-(tetrahydro-2H-pyran-4-yl)pyrido[3,4-e][1,2,4]triazolo[4,3-a]pyrazin-8-yl)phenyl)piperidin-4-amine]	> 100000 nM	19%	> 100000 nM	–	–	–
CN(C)C1CCN(c2ccc(-c3ccc4ncc5nnc(C6CCOCC6)n5c4n3)cc2)CC1 [Example 72, N,N-dimethyl-1-(4-(9-(tetrahydro-2H-pyran-4-yl)pyrido[3,2-e][1,2,4]triazolo[4,3-a]pyrazin-2-yl)phenyl)piperidin-4-amine]	104 nM	99%	62.9 nM	39%	82%	97%
NC1CCN(c2ccc(-c3ccc4ncc5nnc(C6CCOCC6)n5c4n3)cc2)CC1 [Example 73, 1-(4-(9-(tetrahydro-2H-pyran-4-yl)pyrido[3,2-e][1,2,4]triazolo[4,3-a]pyrazin-2-yl)phenyl)piperidin-4-amine]	210 nM	100%	191 nM	–	–	–
CNC1CCN(c2ccc(-c3ccc4ncc5nnc(C6CCOCC6)n5c4n3)cc2)CC1 [Example 74, N-methyl-1-(4-(9-(tetrahydro-2H-pyran-4-yl)pyrido[3,2-e][1,2,4]triazolo[4,3-a]pyrazin-2-yl)phenyl)piperidin-4-amine]	305 nM	100%	199 nM	–	66%	96%
CCNC1CCN(c2ccc(-c3ccc4ncc5nnc(C6CCOCC6)n5c4n3)cc2)CC1 [Example 75, N-ethyl-1-(4-(9-(tetrahydro-2H-pyran-4-yl)pyrido[3,2-e][1,2,4]triazolo[4,3-a]pyrazin-2-yl)phenyl)piperidin-4-amine]	168 nM	100%	158 nM	–	–	–
CN(C)C1CCN(c2ccc(-c3ccc4ncc5nnc(C6CCOCC6)n5c4n3)cn2)CC1 [Example 76, N,N-dimethyl-1-(5-(9-(tetrahydro-2H-pyran-4-yl)pyrido[3,2-e][1,2,4]triazolo[4,3-a]pyrazin-2-yl)pyridin-2-yl)piperidin-4-amine]	262 nM	100%	818 nM	–	–	–
CNC1CCN(c2ccc(-c3ccc4ncc5nnc(CN6CCOCC6)n5c4n3)cc2)CC1 [Example 77, N-methyl-1-(4-(9-(morpholinomethyl)pyrido[3,2-e][1,2,4]triazolo[4,3-a]pyrazin-2-yl)phenyl)piperidin-4-amine]	937 nM	97%	1010 nM	–	–	–
